This is an account of results in PubChem BioAssay (NCI).

Common to all, as to test: NCI anticancer screen, dose series, 48 h
For experiment [1], the system named is A549 NSCLC.
Experiment [2] relates to ACHN renal.
The subject of experiment [3] is MOLT-4 leukemia.
Experiment [4] deals with SF-268 CNS.
Experiment [5] has as its system TK-10 renal.
Experiment [6] concerns UACC-62 melanoma.
For experiment [7], the system named is BT-549 breast.
The test system of experiment [8] is MDA-MB-231 breast.
Experiment [9] relates to NCI/ADR-RES ovarian.
The subject of experiment [10] is HS 578T breast.

Each structure is given as a SMILES string.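 All cell lines were grown in 96-well plates and treated with compound for 48 hours. Here, GI50 denotes the concentration required for 50% inhibition of growth. At the TGI there is no net growth.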

Consider `O=c1c2ccccc2c(=O)c2c1cc(Cl)c1[nH]c3c([nH]c12)c(Cl)cc1c(=O)c2ccccc2c(=O)c13`, for which the TGI in experiment [1], in [2], in experiment [3], in [4], in experiment [5] and in experiment [6] was > 100 µM in each case.
Consider `N#CCC(=O)N/N=C1\C(=O)N(c2ccc(Cl)cc2)C(=O)C(=O)C1c1nc2ccccc2o1` (configuration not stated), for which the TGI in experiment [1], in experiment [2], in [3], in experiment [4], in experiment [5] and in experiment [6] was > 100 µM throughout.
Regarding `Cc1cc(NS(=O)(=O)c2ccc(NC(=O)c3cccc4c(Nc5ccc(S(=O)(=O)Nc6cc(C)on6)cc5)c5ccccc5nc34)cc2)no1`, the TGI was > 100 µM in experiment [1]; > 100 µM in [2]; 95.4 µM in experiment [3]; > 100 µM in [4]; 35 µM in experiment [6].
With `CC1(C)CC2C=C(C=O)C3(C=O)CC3(C)C2C1` (configuration not stated), the TGI was 27.2 µM in [1]; 2.83 µM in experiment [2]; 3.37 µM in [7]; 3.87 µM in [8]; 1.15 µM in [3]; 5.21 µM in experiment [9]. Further, the TGI came out at 6.02 µM in experiment [4], 5.62 µM in experiment [5] and 17.1 µM in experiment [6].
Turning to `CCOC(=O)C1=C(C)NC2SC(=O)/C(=C\c3ccccc3)N2C1c1ccccc1` (configuration not stated), the GI50 in experiment [1], in experiment [2], in experiment [7], in experiment [10], in experiment [8] and in experiment [9] was > 100 µM throughout. Moreover, the results for the GI50 in experiment [4], in experiment [5] and in experiment [6] were > 100 µM, 56.2 µM and > 100 µM, respectively. Besides, the TGI in [1], in [2], in [7], in [10], in experiment [8] and in experiment [9] was > 100 µM throughout. Further, the TGI in [4], in experiment [5] and in experiment [6] was > 100 µM in each case.
Take `COc1cccc(NC(=O)CC(=O)N2NC(C)C(N=Nc3cccc(C(=O)O)c3)C2=O)c1` (configuration not stated): the TGI in [1], in [2], in experiment [3], in experiment [4], in experiment [5] and in experiment [6] was > 100 µM throughout.
On to `CC1=C([Se]CC(OC(=O)[C@@H](CO)NC(=O)OC(C)(C)C)C(=O)NC(C)(C)C)C(=O)c2ccccc2C1=O` (some centres not stated), for which the GI50 in [1] is 1.81 µM; in [2], 1.57 µM; in experiment [7], 1.59 µM; in experiment [8] it was 1.62 µM; in experiment [4], 1.89 µM; in experiment [5], 1.98 µM. The GI50 in [6] was 1.66 µM. For the same compound, the TGI in experiment [1] was 9.44 µM; in experiment [2], 3.02 µM; in experiment [7], 2.93 µM; in [8], 3.14 µM; in experiment [4] it was 3.34 µM; in experiment [5], 3.44 µM. Further, the TGI in [6] stood at 3.05 µM.
Consider `N#Cc1cccc(NC(=O)c2oc3ccccc3c2-c2cnn(-c3ccccc3)c2)c1`, for which the GI50 was > 500 µM in experiment [1]; > 500 µM in experiment [2]; 167 µM in experiment [7]; 171 µM in [10]; 90 µM in [8]; > 500 µM in experiment [9]. The GI50 in [4] is 304 µM; in experiment [5], 317 µM; in [6] it was > 500 µM. Further, the TGI in experiment [1], in [2], in experiment [7], in experiment [10], in [8] and in [9] was > 500 µM in each case. Besides, the TGI in experiment [4], in [5] and in [6] was > 500 µM each time.
For the compound `C[C@H]1CC(=O)C2=CCCC3(SCCCS3)[C@@H]2[C@H]1CO`, the TGI in [1], in experiment [2], in experiment [3], in [4], in [5] and in experiment [6] was > 100 µM each time.
For the compound `CCN(CC)CCNC(=O)c1cccc2cc3ccccc3nc12`, the TGI in experiment [1] is > 100 µM; in [2], 22.3 µM; in experiment [3], 7.95 µM; in [4], 28.2 µM; in experiment [5], 31.8 µM; in experiment [6] it was 15.9 µM.
For the compound `O=C(O)C#CCO`, the TGI in experiment [1], in experiment [2], in experiment [3], in experiment [4], in experiment [5] and in [6] was > 100 µM each time.
For `CCc1c(Cl)nc(Cl)nc1Cl`, the TGI in experiment [1] came out at 13.7 µM; in experiment [2], 0.219 µM; in experiment [7] it was 0.133 µM; in experiment [8], 2.81 µM; in experiment [3] it was 9.5 µM; in [9], 11.3 µM. The TGI was 2.03 µM in experiment [4], 4.77 µM in experiment [5] and 2.28 µM in experiment [6].
For the compound `NCC(NC(=O)OCc1ccccc1)C(=O)O` (configuration not stated), the TGI in experiment [1], in experiment [2], in experiment [3], in experiment [4], in experiment [5] and in experiment [6] was > 50 µM each time.
Turning to `CCC1CC(=O)N(SCC(N)C(=O)O)C1=O` (configuration not stated), the TGI in experiment [1], in experiment [2], in [7], in experiment [10], in experiment [8] and in experiment [9] was > 100 µM throughout. Further, the TGI in [4], in [5] and in experiment [6] was > 100 µM in each case.
As for `Cc1cc(C(=O)N2CCN(Cc3ccccc3)CC2)c(C)o1`, the TGI in experiment [1], in [2], in experiment [3], in experiment [4], in [5] and in [6] was > 100 µM throughout.
Turning to `CN(c1ccccc1)C1C(=O)N(c2ccccc2)C1/C=C/c1ccccc1` (configuration not stated), the TGI in experiment [1], in experiment [2], in experiment [3], in experiment [4], in [5] and in [6] was > 100 µM throughout.
For `Cc1cc(C)cc(Sc2c([N+](=O)[O-])ncn2C)c1`, the TGI in experiment [1] was > 100 µM; in [2], > 100 µM; in experiment [3], 38.2 µM; in experiment [4] it was 33.9 µM; in experiment [5], 72.4 µM; in experiment [6] it was 29.8 µM.
Regarding `O=C1C(Cl)=C(Nc2cccc(O)c2)C(=O)N1c1ccc(Cl)c(Cl)c1`, the GI50 in [1] is 23.9 µM; in experiment [2], 17.3 µM; in experiment [10], 20.5 µM; in [3], 15.1 µM; in experiment [9] it was 22.4 µM; in [4], 23.8 µM. Besides, the GI50 in [5] is 25.7 µM; in experiment [6], 27.6 µM. The TGI in experiment [1] was 60.6 µM; in [2], 33.3 µM; in experiment [10], 54.3 µM; in [3], > 100 µM; in [9] it was 52.3 µM; in [4], 62.3 µM. Also, the TGI in experiment [5] is 63.8 µM; in experiment [6] it was > 100 µM.
`CCC[CH2][Sn]([CH2]CCC)([O]C(=O)c1nccnc1N)[O]C(=O)c1nccnc1N`: the GI50 was 3.52 µM in experiment [1]; 1.02 µM in [2]; 0.257 µM in experiment [3]; 0.64 µM in [4]; 0.742 µM in [5]; 0.998 µM in [6]. Further, the TGI in experiment [1] worked out at 12.7 µM; in experiment [2] it was 2.19 µM; in experiment [3], 1.1 µM; in [4], 1.97 µM; in [5] it was 2.02 µM; in experiment [6], 2.16 µM.
Consider `CN(C)CCN=Cc1c2ccccc2c(=O)n2c1oc1ccccc12`, for which the GI50 in [1] is 4.13 µM; in [2], 2.63 µM; in experiment [7], 7.61 µM; in experiment [8], 12.5 µM; in experiment [3] it was 4.2 µM; in experiment [9], 13.7 µM. The results for the GI50 in [4], in [5] and in experiment [6] were 5.56 µM, 3.44 µM and 10.8 µM, respectively. Further, the TGI in experiment [1] is 20.7 µM; in experiment [2] it was 11.2 µM; in experiment [7] it was 21.1 µM; in experiment [8] it was 29 µM; in experiment [3], > 100 µM; in experiment [9] it was 32.6 µM. Further, the figures for the TGI in experiment [4], in [5] and in [6] were 20 µM, 14 µM and 23.6 µM, respectively.
For `O=C(O)C1CCCCN1C(=O)c1ccccc1` (configuration not stated), the TGI in experiment [1], in [2], in [3], in experiment [4], in [5] and in experiment [6] was > 100 µM throughout.
In the case of `C=C(CS(=O)(=O)c1ccccc1)[P+](c1ccccc1)(c1ccccc1)c1ccccc1`, the TGI in [1] is > 100 µM; in experiment [2], 53.1 µM; in experiment [3], 39.6 µM; in experiment [4], 29.6 µM; in experiment [5], 92.4 µM; in experiment [6] it was 56.9 µM.
For `O=C(O)CCC1(Br)CCCCC(Br)C1=O` (configuration not stated), the TGI in [1], in experiment [2], in experiment [3], in experiment [4], in [5] and in experiment [6] was > 100 µM each time.
With `C/C(=N/NC(=O)C(N)=O)C(CC(C(=O)Nc1ccccc1C)/C(C)=N\NC(=O)C(N)=O)C(=O)Nc1ccccc1C` (configuration not stated), the TGI in experiment [1], in experiment [2], in experiment [3], in [4] and in [5] was > 100 µM each time.
As to `CC(=O)OC1C(CCl)OC(N=[N+]=[N-])C(OC(C)=O)C1OC(C)=O` (configuration not stated), the TGI in experiment [1], in experiment [2], in experiment [3], in experiment [4], in experiment [5] and in experiment [6] was > 100 µM each time.
`COC(=O)[C@@]1(C)CC[C@]2(C)CC[C@]3(C)C4=CC=C5C(=CC(=O)C(O)=C5C)[C@]4(C)CC[C@@]3(C)[C@@H]2C1`: the GI50 in [1] is 1.21 µM; in [2], 0.154 µM; in experiment [7], 0.36 µM; in [10], 0.289 µM; in [8], 0.171 µM; in experiment [3] it was 0.164 µM. In addition, the GI50 in [4] is 0.341 µM; in experiment [5] it was 0.185 µM; in experiment [6] it was 0.202 µM. Besides, the TGI in [1] is 2.54 µM; in experiment [2], 0.29 µM; in experiment [7] it was 0.889 µM; in [10], 1.52 µM; in [8], 0.395 µM; in experiment [3], 0.525 µM. Further, the TGI in experiment [4] was determined as 1.23 µM; in [5] it was 0.449 µM; in experiment [6] it was 0.467 µM.
Turning to `CC(C)(C)[Si](C)(C)O/N=C\c1ccc(O[Si](C)(C)C(C)(C)C)cc1`, the TGI in experiment [1], in experiment [2], in experiment [3], in experiment [4], in [5] and in [6] was > 100 µM in each case.
As to `C=C1Oc2nc3ccccc3c(=O)n2C1(C)C`, the TGI in experiment [1], in [2], in experiment [3], in experiment [4], in experiment [5] and in experiment [6] was > 100 µM throughout.
For `CC(C)c1cccc(C(C)C)c1NC(=O)C(=O)C(C(=O)c1ccc2ccccc2c1)C1OC(=O)c2ccccc21` (configuration not stated), the TGI in experiment [1], in [2], in experiment [3], in experiment [4] and in experiment [6] was > 100 µM throughout.
